Assay results from patent publication US10709757B2, “Pharmaceutical composition for anti-angiogenesis containing cyclic pentadepsipeptide as an effective ingredient” (CHUNG-ANG UNIVERSITY INDUSTRY-ACADEMIC COOPERATION …, priority 2017, dated 2020).

What was measured:
eNOS = assay: Phosphorylation assay of eNOS in VEGF-induced HUVECs (Western); format: cell-based, human; conditions: VEGF 50 ng/ml, FIG. 2
Method: (§1) After being cultured to 80-90% confluence, human umbilical vein endothelial cells (HUVECs) were additionally cultured in an M199 medium supplemented with 1% FBS for 6 hours, and then treated with neo-N-methylsansalvamide (NMSSV) at various concentrations in the presence of VEGF (50 ng/ml) for 10 minutes. Effects of neo-N-methylsansalvamide (NMSSV) in the phosphorylation assay of ERK1/2, AKT, and eNOS of HUVEC cells were measured by a Western assay method using each antibody.
(§2) In this case, the HUVECs were pre-cultured for 10 minutes prior to the VEGF stimulation and along with P2 for 40 minutes.

mouse aortic ring = assay: Aortic ring assay (ex vivo VEGF-induced vascularization); conditions: in the presence of VEGF, FIG. 6
Method: 150 μl of Matrigel was put into a 48-well plate, uniformly spread by shaking the 48-well plate, and hardened in an incubator at 37° C. for 30 minutes. After a C57BL/6 mouse was over-anesthetized with ether and sacrificed, the aorta was extracted and washed with PBS to remove the fat, the resulting aorta was transferred to human endothelial-SFM and excised by using micro scissors. The excised aorta was placed on the hardened Matrigel, 50 μl of Matrigel was dropped on the aorta tissue, and then hardened in an incubator at 37° C. for 30 minutes. 200 μl of a medium including neo-N-methylsansalvamide (NMSSV) and VEGF was each added, and cells were observed while being cultured in a CO2 incubator at 37° C. After treatment with the test material, the cells were cultured for 14 days. On Day 7 and Day 14 of the culture, the cells were observed and photographed by an invert microscope (OLYMPUS, CKX41), and the lengths of the blood vessels produced were measured by photographing the aorta with the Toupview program (OLYMPUS, ver.3.5).
Based on the results in the Examples, the effects of P2 on ex vivo VEGF-induced neovascularization were identified, so that an aortic ring assay was performed in order to check the effects of P2 on the formation of capillary vessels in the presence of VEGF.

C57BL/6 mice [1] = assay: Laser-induced CNV mouse model, isolectin B4 immunofluorescence staining; format: in vivo; conditions: intravitreal injection once, 2 weeks after laser, vs control, FIG. 9
Method: (§3) More specifically, male 6-week-old C57BL/6 mice were purchased from Orient Bio Inc., and acclimated for 1 week, and then anesthetized, and the pupils were dilated. Subsequently, an animal model was prepared by irradiating the space around the ophthalmic nerves in 12, 3, 6, and 9 o'clock directions with diode green laser (532 nm, 200 mW, 0.8 sec, 50 μm, and photocoagulator) to cause injury to 3 to 4 sites per eyeball.
(§4) After injury was caused to mice with laser by the method in Example 1-9-1 and the mice were anesthetized one day later, 2 μL was administered into the vitreous body of both eyes once (intravitreal injection) using a 34 gauge needle. Subsequently, 14 days after the irradiation with laser, angiography and staining and imaging of CNV were performed.
14 days after the irradiation with laser, eyeballs were extracted from the mice, and then fixed in 4% paraformaldehyde for 1 hour. […] Thereafter, after the complex tissue was washed with PBS, the tissue with a fluorescence mounting medium (Vector, USA) was fixed on a slide glass, and then covered with a cover slip, and the tissue was observed and photographed through a fluorescence microscope. The CNV lesion area was measured by using Image-Pro Plus software. […]

ERK1/2 = assay: Phosphorylation assay of ERK1/2 in VEGF-induced HUVECs (Western); format: cell-based, human; conditions: VEGF 50 ng/ml, FIG. 2
Method: as §1, §2

C57BL/6 mice [2] = assay: Laser-induced choroidal neovascularization (CNV) mouse model, angiography; format: in vivo; conditions: intravitreal injection once, 14 days after laser, vs control, FIG. 8
Method: as §3, §4
14 days after the irradiation with laser, the mice experienced mydriasis and were systemically anesthetized by injecting 80 mg/kg of alfaxalone into the abdominal cavities of the mice, and then 1% fluorescein was intraperitoneally injected into the mice. And then, after the mice were photographed by using a Micron IV device, the CNV lesion area was measured by using Image-Pro Plus software.
Accordingly, in the animal models prepared by the methods in Examples 1-9, the degree to which the contrast medium was leaked according to the administration of NMSSV was compared with that of the control.

AKT = assay: Phosphorylation assay of AKT in VEGF-induced HUVECs (Western); format: cell-based, human; conditions: VEGF 50 ng/ml, FIG. 2
Method: as §1, §2

HUVECs [3] = assay: Wound-healing migration assay; format: cell-based, human; conditions: VEGF 50 ng/ml, 24 hours, FIG. 4
Method: When cells were grown to approximately 90%, the medium was suctioned, and then a line was created by steadily scratching the bottom of the plate with a yellow tip, and then the cells were washed with PBS and treated with neo-N-methylsansalvamide (NMSSV) at various concentrations in the presence of VEGF (50 ng/ml) for 24 hours. After 24 hours, the tendency of cells to migrate at each treatment concentration was photographed and observed by marking the position under a microscope at 40× magnification.
(§5) Subsequently, the migration and invasion of endothelial cells is also a main step of angiogenesis leading to the formation of new blood vessels, so that effects of P2 on mobility and invasiveness of VEGF-induced HUVECs were checked by using a wound-healing migration assay and a Transwell invasion assay.

C57BL/6 mice [4] = assay: Matrigel plug assay (in vivo VEGF-induced angiogenesis); set-up: species or system mouse; conditions: seven days, FIG. 7
Method: A test material administration group and a VEGF (50 ng/ml) administration group were established, and each group consisted of six 8-week-old C57BL/6 mice. 0.5 ml of Matrigel, 50 U/ml of heparin, and a test material were formulated for use at each concentration right before the administration, and formulated such that VEGF was also included in the test material administration group. Seven days after the administration, a Matrigel plug was extracted, a photograph was taken, the amount of hemoglobin was measured by using the Drabkin method (Drabkin reagent kit 525, Sigma-Aldrich, Louis, Mo.), and purification was performed.
0.6 ml of the test material solution was administered to the dorsal hypodermis of each test animal by using a 1-ml syringe.
Thus, additionally through an in vivo Matrigel plug assay, the effects of P2 on in vivo angiogenesis were checked.

[5] = tested on: human umbilical vein endothelial cells (HUVECs); assay: MTT assay, VEGF-induced proliferation of HUVECs; format: cell-based; conditions: 24 hours
Method: After being cultured to 80-90% confluence, human umbilical vein endothelial cells (HUVECs) were additionally cultured in an M199 medium supplemented with 1% FBS for 6 hours, and then treated with neo-N-methylsansalvamide (NMSSV) at various concentrations in the presence of VEGF (50 ng/ml) for 24 hours. Effects of neo-N-methylsansalvamide (NMSSV) on the viability and growth inhibition of the HUVEC cells were measured by a 3-(4,5-dimethylthiazol-2-yl)-2,5-diphenyltetrazolium bromide (MTT) assay method.
In order to identify the effects of the neo-N-methylsansalvamide (NMSSV, Peak 2, hereinafter, referred to as P2) of the present invention on the proliferation in VEGF-induced HUVECs, it was confirmed that cells were proliferated by culturing the cells with P2 at various concentrations in the presence or absence of VEGF (50 ng/ml) by the method in Example 1-2 and performing an MTT assay 24 hours after the culture.

HUVECs [6] = assay: Transwell invasion assay; format: cell-based, human; conditions: VEGF 50 ng/ml, 24 hours, FIG. 5
Method: An experiment was performed by using a modified Boyden chamber prepared with a polycarbonate nucleopore membrane (Corning, Corning, N.Y.). After trypsin-EDTA was added to the cells, the cells were collected, the cells were measured by using a hematocytometer, and then the concentration was set to 4×10^5 cells/ml, and the cells were respectively aliquoted. After 700 μl of the medium was added to the bottom well and an insert was placed thereon, 100 μl of cells prepared with neo-N-methylsansalvamide (NMSSV) at various concentrations were aliquoted into the insert in the presence of VEGF (50 ng/ml) and cultured in an incubator at 37° C. for 24 hours. […] After the cells, which succeeded in passing through the gelatin, were fixed with 4% paraformaldehyde, the cells were stained by using crystal violet, washed twice with PBS, and then placed on a glass plate. Thereafter, the cells were observed by using a microscope, and arbitrary five points were marked, photographed, and observed.
as §5

HUVECs [7] = assay: Colony tube formation assay; format: cell-based, human; conditions: Matrigel, VEGF 50 ng/ml, 24 hours, FIG. 3
Method: After being cultured to 80-90% confluence in a plate covered with Matrigel (Collaborative Biomedical Products, Bedford, Mass.), HUVECs were additionally cultured in an M199 medium supplemented with 1% FBS for 6 hours, and then treated with neo-N-methylsansalvamide (NMSSV) at various concentrations in the presence of VEGF (50 ng/ml) for 24 hours. The tube formation was photographed by using a phase-contrast microscope.
The formation of capillary-like tubular structures by endothelial cells is one of the most essential steps in the development of angiogenesis, and it was checked whether P2 inhibited the formation of capillary-like network structures in HUVECs in Matrigel.

CC(C)CC1OC(=O)[C@H](Cc2ccccc2)NC(=O)[C@H](CC(C)C)NC(=O)[C@H](C(C)C)NC(=O)[C@H](CC(C)C)N(C)C1=O (single isomer, unassigned) [P2, neo-N-methylsansalvamide]
phosphorylation of eNOS induced by VEGF (eNOS): inhibited the phosphorylation
formation of VEGF-induced blood vessels in a mouse aortic ring (mouse aortic ring): significantly inhibited
CNV lesion area (isolectin B4 stained area) (C57BL/6 mice [1]): significantly decreased
phosphorylation of ERK1/2 induced by VEGF (ERK1/2): inhibited the phosphorylation
CNV lesion area (angiography) (C57BL/6 mice [2]): the CNV lesion area is decreased
fluorescein leakage (C57BL/6 mice [2]): the fluorescein leakage was decreased
phosphorylation of AKT induced by VEGF (AKT): inhibited the phosphorylation
VEGF-induced migration of HUVECs (HUVECs [3]): significantly decreased
content of hemoglobin of Matrigel plug treated with VEGF (C57BL/6 mice [4]; Drabkin method): continuously inhibited the content of hemoglobin
formation of new blood vessels in Matrigel plug (C57BL/6 mice [4]; compared to VEGF alone, subcutaneous plug): the formation of new blood vessels was decreased
proliferation of HUVECs induced by VEGF ([5]; VEGF 50 ng/ml, MTT, FIG. 1): dose-dependently inhibited
apoptosis (cytotoxicity) in HUVECs ([5]; at 5 μg/ml of P2, MTT): significant apoptosis was not detected
invasion of HUVECs due to VEGF through Matrigel (HUVECs [6]): blocked
VEGF-induced colony tube formation in HUVECs (HUVECs [7]): significantly inhibited
